The nature of series [1]: Elimination half life in Sprague-Dawley rat at 2.5 mg/kg, iv measured after 24 hrs by LC-MS/MS analysis. It is filed as ADME, organism-based. As to conditions: in vivo, read-out: beta t1/2 (converted).
Series [2] can be described thus: Volume of distribution at steady state in Sprague-Dawley rat at 2.5 mg/kg, iv measured after 24 hrs by LC-MS/MS analysis. It is filed as ADME, organism-based. As to conditions: in vivo, read-out: Vdss.
For a further series, the system named is dengue virus type 2. As to the kind of experiment: Antiviral activity against DENV-2 16681 expressing eGFP infected in african green monkey Vero cells incubated with cells for 24 hrs followed by viral infection measured after 3 days by laser microscopic analysis. As to conditions: Dengue virus, 16681, Vero. It is filed as functional, organism-based.
Series [3] can be described thus: Clearance in Sprague-Dawley rat at 2.5 mg/kg, iv measured after 24 hrs by LC-MS/MS analysis. Particulars: in vivo. The format is ADME, organism-based.
A short description of series [4]: Metabolic stability in human hepatocytes assessed as intrinsic clearance measured per million cells incubated upto 120 mins by LC-MS/MS analysis. The format is ADME, cell-based, Hepatocyte. Particulars: read-out: CLH.
The next series relates to dengue virus type 4. As to the kind of experiment: Antiviral activity against DENV-4 H241 infected in african green monkey Vero cells incubated for 24 hrs measured after 3 days post infection by RT-PCR analysis. It is filed as functional, organism-based.
Series [5] can be described thus: AUC in Sprague-Dawley rat at 10 mg/kg, po measured after 24 to 48 hrs by LC-MS/MS analysis. The format is ADME, organism-based. As to conditions: in vivo, time 24-48 hrs.
Another series has as its system dengue virus type 1. As to the kind of experiment: Antiviral activity against DENV-1 TC974#666 infected in african green monkey Vero cells incubated for 24 hrs measured after 3 days post infection by RT-PCR analysis. The format is functional, organism-based. Particulars: read-out: EC50.
Series [6] is described as follows: Chromatographic hydrophobicity index, log D of the compound at pH 7.4 by LC/MS analysis. The format is physicochemical. Particulars: buffer.
A short description of series [7]: Thermodynamic solubility of the compound in PEG400 measured after 24 hrs by UPLC analysis. The format is physicochemical.
The nature of series [8]: Clearance in Sprague-Dawley rat assessed as liver blood flow at 2.5 mg/kg, iv measured after 24 hrs by LC-MS/MS analysis. It is filed as ADME, organism-based. As to conditions: in vivo.
Series [9] in a line: Oral bioavailability in Sprague-Dawley rat at 10 mg/kg measured after 24 to 48 hrs by LC-MS/MS analysis. The format is ADME, organism-based. As to conditions: in vivo, time 24-48 hrs.
Series [10] in a line: Thermodynamic solubility of the compound in aqueous buffer at pH 7.4 measured after 24 hrs by UPLC analysis. The format is physicochemical. Particulars: read-out: Therm_solubility.
In a further series the test system is dengue virus type 3. As to the kind of experiment: Antiviral activity against DENV-3 H87 infected in african green monkey Vero cells incubated for 24 hrs measured after 3 days post infection by RT-PCR analysis. The format is functional, organism-based. As to conditions: Dengue virus, H87, Vero; read-out: EC50.
Series [11] is described as follows: Metabolic stability in rat hepatocytes assessed as intrinsic clearance measured per million cells incubated upto 120 mins by LC-MS/MS analysis. It is filed as ADME, cell-based, Hepatocyte. As to conditions: read-out: CLH.
Series [12] is described as follows: Cmax in Sprague-Dawley rat at 10 mg/kg, po measured after 24 to 48 hrs by LC-MS/MS analysis. As to conditions: in vivo, time 24-48 hrs. It is filed as ADME, organism-based.
Series [13] in a line: Metabolic stability in human liver microsomes assessed as intrinsic clearance preincubated for 5 mins followed by NADPH addition measured upto 60 mins by LC-MS/MS analysis. Particulars: time < 65 min, read-out: CLH. The format is ADME, Microsome.

The structures appear in SMILES notation. Values after ≈ are worked out from the molar mass of the structure shown.

Usually EC50 stands for the concentration needed to bring the measured effect to its halfway point. In general, clearance refers to the rate of elimination divided by the concentration. One may read the AUC as the area under the concentration-time curve, a measure of exposure. In general, bioavailability refers to the share of a dose that reaches the circulation, judged against a reference dose that is usually intravenous. In general, Cmax refers to the highest concentration seen after dosing. For the molecule `COc1cc(NC(C(=O)c2c[nH]c3cc(OC)c(C)cc23)c2ccc(F)cc2OC)cc(S(C)(=O)=O)c1` (single isomer, unassigned; (+)), the half-life in [1] was 5.1 h. In addition, the Vd in series [2] came out at 5.5 L/kg. Further, the EC50 in the series with dengue virus type 2 was 0.61 nM; in the series with dengue virus type 4, 110 nM; with dengue virus type 1 (Dengue virus, TC974#666, Vero), 40 nM; in the series on dengue virus type 3 it was 55 nM. Besides, the clearance in series [3] is 14 mL/min/kg. Further, the results for the hepatocyte CLint in series [4] and in series [11] were 7.6 µL/min/1e6 cells and 17 µL/min/1e6 cells, respectively. This molecule also had an AUC in [5] of 3700 ng·h/mL. In series [6], the “Chromatographic log D at pH 7.4” value is on record as 3.36. Besides, the Therm_solubility in series [7] was 93000 µg/mL. Also, in series [8], the LBF came out at 20%. In addition, the bioavailability in series [9] came out at 31%. For the same molecule, the solubility thermodynamic at 24 h in series [10] was determined as 1 µg/mL (≈ 1.9 µM). The molecule also registered a Cmax in series [12] of 263 ng/mL.

As to `COc1cc(NC(C(=O)c2c[nH]c3cc(OC)c(C)cc23)c2ccc(Cl)cc2OC)cc(S(C)(=O)=O)c1` (centres undefined), in [13], the microsomal CLint was < 8 µL/min/mg. Besides, the half-life in [1] was 4.4 h. Moreover, in series [2], the Vd worked out at 8.8 L/kg. Besides, the clearance in series [3] was determined as 23 mL/min/kg. The molecule further displayed an AUC in [5] of 5140 ng·h/mL. The EC50 with dengue virus type 1 (Dengue virus, TC974#666, Vero) stood at 0.97 nM; with dengue virus type 1 (vero), 0.9 nM. In addition, the Therm_solubility in series [7] is > 169000 µg/mL. In addition, the LBF in series [8] came out at 33%. The bioavailability in series [9] came to 74%. Also, the solubility thermodynamic at 24 h in series [10] was 1 µg/mL (≈ 1.84 µM). Also, in series [11], the hepatocyte CLint was found to be 7.2 µL/min/1e6 cells. Moreover, the Cmax in [12] came out at 371 ng/mL.

Turning to `COc1cc(NC(C(=O)c2c[nH]c3cc(F)ccc23)c2ccc(F)cc2OC)cc(S(C)(=O)=O)c1` (centres undefined), in series [1], the half-life is 5.3 h. In series [2], the Vd turned out to be 7.2 L/kg. Further, the clearance in [3] stood at 16 mL/min/kg. Moreover, the values for the hepatocyte CLint in [4] and in [11] were < 1.9 µL/min/1e6 cells and 8.5 µL/min/1e6 cells, respectively. The EC50 with dengue virus type 4 is 170 nM; in the series with dengue virus type 1 (Dengue virus, TC974#666, Vero) it was 8 nM; in the series with dengue virus type 3, 50 nM. For the same molecule, the AUC in series [5] amounted to 5210 ng·h/mL. The “Chromatographic log D at pH 7.4” value in [6] is given as 3.23. The molecule also showed a Therm_solubility in series [7] of 41000 µg/mL. For the same molecule, the LBF in series [8] worked out at 23%. The bioavailability in series [9] stood at 49%. Besides, the solubility thermodynamic at 24 h in series [10] was determined as 2 µg/mL (≈ 4 µM). Also, the Cmax in series [12] turned out to be 418 ng/mL.

Source of the values: ChEMBL document CHEMBL5518227, “Discovery of JNJ-1802, a First-in-Class Pan-Serotype Dengue Virus NS4B Inhibitor” (J Med Chem, 2024).
